Measurements from US9115061B2, “Naphthalene-based inhibitors of anti-apoptotic proteins” (BURNHAM INSTITUTE FOR MEDICAL RESEARCH, priority 2007, dated 2015).

Tests used:
H1299 cell line = assay: Cell viability, ATP-LITE assay; type: cell-based, human; settings: 72 hours
Experimental: (§1) The activity of the compounds against human cancer cell lines (PC3ML, H460, H1299, RS11846) were assessed by using the ATP-LITE assay (PerkinElmer). All cells were seeded in either F12 or RPMI1640 medium with 5 mM L-glutamine supplemented with 5% fetal bovine serum (Mediatech Inc.), penicillin and streptomycin (Omega). For maintenance, cells were cultured in 5% FBS. Cells plated into 96 well plates at varying initial densities depending on doubling time. H460 and H1299 plated at 2000 cells/well, A549 and PC3 at 3000 cells/well, and RS118456S at 10,000 cells/well. Compounds were diluted to final concentrations with 0.1% DMSO. Prior to dispensing compounds onto cells, fresh 5% media was placed into wells. Administration of compounds occurred 24 hours after seeding into the fresh media. Cell viability was evaluated using ATP-LITE reagent (PerkinElmer) after 72 hours of treatment. Data were normalized to the DMSO control-treated cells using Prism version 5.01 (Graphpad Software).

H460 cell line = assay: Cell viability, ATP-LITE assay; type: cell-based, human; settings: 72 hours, ATP-LITE
Experimental: as §1

PC3ML cells = assay: Cell viability, ATP-LITE assay; type: cell-based, human; settings: 72 hours, ATP-LITE
Experimental: as §1

RS11846 cell line [1] = assay: Cell viability, ATP-LITE assay; type: cell-based, human; settings: 72 hours
Experimental: as §1

RS11846 cell line [2] = assay: Apoptosis, Annexin V and propidium iodide assay; type: cell-based, human; settings: 1-2 days; read-out: RS11846 EC50 (Annexin V- and propidium iodide assay)
Experimental: The apoptotic activity of the compounds against RS11846 cells was assessed by staining with Annexin V- and propidium iodide (PI). Lymphoma cell line, RS11846, was cultured in RPMI 1640 medium (Mediatech Inc., Herndon, Va. 20171) containing 10% fetal bovine serum (Mediatech Inc., Herndon, Va. 20171) and Penicillin/Streptomycin (Mediatech Inc., Herndon, Va. 20171). […] The percentage of viable cells was determined by FITC-Annexin V- and propidium iodide (PI)-labeling, using an Apoptosis Detection kit (BioVision Inc.), and analyzing stained cells by flow cytometry (FACSort; Bectin-Dickinson, Inc.; Mountain View, Calif.). Cells that were annexin-V-negative and PI-negative were considered viable.

Balb/c mice = assay: Oral toxicity study in normal Balb/c mice; type: in vivo, mouse; settings: […] oral, three weeks
Experimental: Compounds or vehicle control were dosed 15 times over 3 weeks, giving compounds daily for 5 consecutive days (Monday-Friday), resting on weekends.
Both compounds were provided by NCI-DTP (RAID-program). Compounds were dissolved in 100% sesame oil just before oral administration. Vehicle-control consisted of corresponding concentration of ascorbic acid suspended in 100% sesame oil.
Spleens were removed and weighed.
Whole blood (250 μl) was collected in EDTA-coated glass tubes (purple top; MICROTAINER Brand Tube with EDTA, Catalogue #365973, Becton, Dickinson and Company, New Jersey 07417-1885) via either cardiac puncture or severing the brachial artery of anesthetized mice. After thorough mixing, specimens were analyzed using a VetScan HM2 (Abaxis Inc., Union City, Calif. 94587) hematology analyzer, measuring white blood cell count (WBC), red blood cell count (RBC), platelet (PLT) count, leukocyte differential (including % lymphocyte, % monocyte and % granulocyte), hematocrit (Ht), and hemoglobin (Hb).
(Eppendorf Centrifuge 5415C) for 2 minutes to separate serum from cells and fibrin clot. The resulting serum specimens were analyzed using an automated blood chemistry analyzer (“COBAS MIRA Classic”; Roche, Indianapolis, Ind. 46250-0414) to measure alanine aminotransferase (ALT) and aspartate aminotransferase AST), blood urea nitrogen (BUN), and […].
Stomach and intestines were examined also imaged by ultrasound for evidence of dilation, an indication of GI toxicity. Briefly, mice were anesthetized using a mixture of isofluorane (5%) and oxygen gas (95%), restrained on a heated table using Aquagel Lubrication Gel (Parker Laboratories, Inc., Fairfield, N.J. 07004), and abdominal hair was removed with a chemical depilation agent (Nair™ Hair Removal, Church & Dwight Co., Inc., Princeton, N.J. 08543). Aquasonic 100 Ultrasound Transmission Gel (Parker Laboratories, Inc., Fairfield, N.J. 07004) was applied to the abdomen prior to imaging using a high-frequency probe to assess gas and intestinal distention.
Immediately after ultrasound imaging, electrocardiogram (ECG) analysis of anesthetized mice was performed using a MP150 Biopack System.

[3] = orally 0.06 mmol/kg daily for up to 21 days; cited from earlier work

In the case of `Cc1cc2c(C(C)C)c(O)c(O)c(C=O)c2c(O)c1-c1c(C)cc2c(C(C)C)c(O)c(O)c(C=O)c2c1O` [Gossypol, gossypol], the EC50 (H1299 cell line) is reported as 6 µM, the EC50 (H460 cell line) is reported as 3 µM and the EC50 (PC3ML cells) is reported as 3.1 µM. The EC50 (RS11846 cell line [1]) was 2.2 µM, the EC50 (RS11846 cell line [2]) was 4.23 µM and the “general condition of mice” value (Balb/c mice) was “lethagic with scruffy hair”. The anti-tumor activity [3] was “show anti-tumor activity” and the lethality [3] was “non-lethal”.
